Key:
[1] = Local toxicity of the adjuvant; format: in vivo; settings: adjuvant with sc OVA immunization
OVA positive tumor cells = assay: Vaccine-induced tumor protective immunity against lethal challenge; format: in vivo, mice; settings: 5% cream topically over site of sc OVA immunization
Source text: Importantly, the potency of imiquimod was as great as that of the strongest adjuvant we have studied to date in mice but with less local toxicity.

E.G7-OVA cells = assay: ELISPOT (gamma-interferon release) of spleen cells for T-cell response to OVA positive target cells; format: in vivo, C57BI/6 mice; settings: for cellular response to OVA by ELISPOT: FIG. 3B; for T-cell (cellular) response by ELISPOT: FIG. 2A
Source text: FIG. 1A: Mice were immunized to OVA with or without topical application of imiquimod treatment 1× or 3×/wk following each immunization. Spleen cells were collected from each group 1 week following 4 immunizations, and tested by ELISPOT (based on gamma-interferon release) for T-cell response to OVA positive target cells (E.G7-OVA). FIG. 2B Mice were immunized to OVA with topical application of imiquimod 3×/week or with OVA encapsulated into IL-2 liposomes. Imiquimod boosted T-cell responses more strongly than IL-2 liposomes.
(§1) FIG. 3A: Groups of mice were immunized to OVA alone or followed by topical application of imiquimod to the site of immunization 1×/wk. or to a site distal to the immunization. One week following 4 weekly immunizations, sera was collected and tested for anti-OVA IgG subclass antibodies by ELISA. Anti-OVA IgG responses was greater in mice treated with imiquimod both locally and distally than in those immunized to OVA alone. FIG. 3B: Triplicate mice were sacrificed 1 week after 4 immunizations and cellular immune responses to OVA-expressing target E.G7-OVA cells determined by ELIspot assay
(§2) In more detail, groups of 10 C57BI/6 mice were immunized sc weekly×4 to 0.1 mg of ovalbumin (OVA). Some groups were in addition treated with 5% imiquimod cream applied topically to the immunization site once or 3×/week. Control groups were immunized to PBS, to OVA encapsulated into IL-2 liposomes (which we have previously shown is one of the strongest adjvuanrts available), or to irradiated E.G7-OVA cells (a powerful stimulator of anti-OVA T-cell responses). Serum was collected from each mouse at baseline and following the 4th immunization, pooled by immunization group, and assayed for antibodies to OVA by ELISA.
Imiquimod boosted in particular Ig2a and IgG2b responses which were almost undetectable in mice immunized to OVA alone (see FIG. 1 B). This is consistent with the known capacity of this agent to preferentially boost Th1 responses. […] No T-cell responses were detectable in mice immunized similarly to OVA alone.
By contrast, no significant T-cell responses above PBS controls were detectable in mice immunized similarly to OVA alone. We have not studied the adjuvant activity of other TLR receptor ligands such as resiquimod and CpG ODN applied topically away from the immunization site. […] Thus, it is reasonable to expect that all of these will also retain adjuvant activity when applied topically directly over, or away, from the immunization site. Because their specific mechanism of action differs from that of imiquimod, they may have stronger adjuvant activity or may be better able to enhance specific type of immune responses than imiquimod. Combinations of TLR ligands may be able to enhance stronger or broader type of immune response than any one individual TLR ligand alone. This invention is intended to cover these different possibilities.

anti-OVA IgG antibodies = assay: Anti-OVA antibodies in serum by ELISA after sc OVA immunization with adjuvant; format: in vivo, C57BI/6 mice
Source text: Fig. A: Groups of mice were immunized to OVA alone or followed by topical application of imiquimod to the site of immunization 3×/wk. or to OVA in ILK-2 liposomes. One week following 4 weekly immunizations, sera was collected and tested for anti-OVA IgG antibodies by ELISA. Anti-OVA IgG responses was greater in mice treated with imiquimod than in those immunized to OVA alone. It was as strong as that induced by IL-2 liposomes as the adjuvant. Fig. B: One week following 4 weekly immunizations, IgG1, IgG2a, IgG2b, and IgG3 anti-OVA antibodies was measured in these groups by ELISA, using subclass specific antibodies as probes.
as §1, §2
In these experiments, groups of […] mice were immunized sc weekly×4 to 0.1 mg of ovalbumin (OVA) given in 0.1 ml of PBS injected in the lower abdominal region. One group of mice was also treated with 5% imiquimod applied topically to the skin at a site distal (in the nape of the neck) to the immunization site 1×/week.

[2] = topical imiquimod at immunization site, vs OVA only, FIG. 1B

CC(C)Cn1cnc2c(N)nc3ccccc3c21 [imiquimod]
local toxicity [1]: no toxicity at all | vaccine-induced tumor protective immunity (OVA positive tumor cells): markedly increased | cellular response to OVA by ELISPOT (E.G7-OVA cells; distal application of imiquimod): strong cellular responses | T-cell (cellular) response by ELISPOT (E.G7-OVA cells; imiquimod applied to immunization site 1x/wk following each immunization): slight response | T-cell (cellular) response by ELISPOT (E.G7-OVA cells; imiquimod applied to immunization site 3x/week): very strong response | cellular response to OVA by ELISPOT (E.G7-OVA cells; local application of imiquimod): strong cellular responses | T-cell response compared with IL-2 liposomes (E.G7-OVA cells; topical imiquimod 3x/week vs OVA in IL-2 liposomes, FIG. 2B): more potent stimulator of T-cell responses than IL-2 liposomes | overall IgG anti-OVA antibody response (anti-OVA IgG antibodies; OVA 0.1 mg sc weekly x4 + topical imiquimod at immunization site 3x/wk, vs OVA alone, FIG. 1A): considerably greater | IgG2a titer, times stronger than OVA alone (anti-OVA IgG antibodies; distal imiquimod treatment): 25 times | IgG2b titer, stronger than OVA alone (anti-OVA IgG antibodies; distal imiquimod treatment): 125 | IgG2a titer, times stronger than OVA alone (anti-OVA IgG antibodies; local imiquimod treatment): 125 times | IgG2b titer, stronger than OVA alone (anti-OVA IgG antibodies; local imiquimod treatment): 125 | IgG1 anti-OVA antibody response (anti-OVA IgG antibodies; [2]): reduced | IgG2a anti-OVA antibody response (anti-OVA IgG antibodies; [2]): markedly boosted | IgG2b anti-OVA antibody response (anti-OVA IgG antibodies; [2]): markedly boosted | anti-OVA IgG subclass response (anti-OVA IgG antibodies; topical imiquimod both local and distal to vaccine injection site, vs OVA alone, FIG. 3A): considerably greater

— patent US20090060928A1, “Topical Toll Like Receptor Ligands as Vaccine Adjuvants” (priority 2006, published 2009)
